Test results taken from patent publication US20200254065A1, “LONG-ACTING GLP-2 ANALOGS” (OPKO Biologics Ltd., priority 2019, published 2020).
Where two headings read alike, the source gives them in different places. One block for each molecule: values may come before it. Numbered stars: 1 amine (or outer) side, 2 acyl side, 3 side chain; on linkers, the order of the positions; unused ones are H or OH. Square brackets hold non-standard residues; d marks the D form. Ends that are not written are not given here. Peptide text beside a SMILES is read from it. * marks the point of attachment. X2 = O=C(OCC1c2cc(N[*:1])ccc2-c2ccc(S(=O)(=O)O)cc21)[*:2]; X1 = N[C@@H](CSC1CC(=O)N(CCC(=O)*)C1=O)C(=O)O; Nle = CCCC[C@H](N)C(=O)O

How the values were obtained:
[1] = test system: small intestine; experiment: Intestine weight model in rats; format: in vivo, SD rats
Experimental: In the pharmacology study, the conjugates were injected subcutaneously twice, on days 1 and 3 at 1 mg/kg (peptide dose) and intestine weight was performed on day 6. In addition to the PEGylated conjugates, GLP-2-Gly2 was injected at the same dose and regimen for comparison. The average of the intestine weight of each group was compared to that of the vehicle group.
In a different study, several of the PEGylated teduglutide were injected as a single dose at 1 mg/kg and the intestine weight performed on day 6.
Pharmacology and pharmacokinetic studies were performed with the most promising GLP-2 variants to evaluate their efficacy and longevity, respectively. The intestine weight model in rats was conducted to evaluate efficacy, by measuring percent increase of the intestine weight of treated animals over the vehicle group. In this study, the peptides were injected twice, on days 1 and 3 at 1 mg/kg and the intestine weight was conducted on day 6.
PEG20-FMS-V6, PEG20-Fmoc-V6 and PEG40-FMS-V6 were injected once at 1 mg/kg dose on day 1, while group D was also injected twice on days 1 & 3 at 1 mg/kg. The intestine weight was performed on day 6.
Three different reversible PEGylated GLP-2 variants using mutated peptide #4 were injected at 2 mg/kg (peptide dose), once every 6 days for 12 days. On the 12th day the intestine was weighted and compared to the control group. PEG30-FMS-V4 was injected at 0.5 mg/kg as well to evaluate the efficacy dose range.
In addition to PEG30-FMS-V4 and PEG30-Fmoc-V4 that have been pharmacology evaluated by small intestinal weight evaluation (As shown in Example 5), four other reversible PEGylated variant 4 (“V4”) conjugates and two reversible linker-V4 conjugates were synthesized. All the above were injected to 6 normal SD rats/group once at 2 mg/kg (peptide dose), while on the 6th day, animals were scarified, and the small intestine was weighted followed by histopathology evaluation. […] Therefore, slices from three areas of the intestine (duodenum, jejunum and ilium) were stained with hematoxylin and eosin and at least 7 Crypts+Villi length/slice were measured. The averaged Villi+Crypt length of each treatment group (n=6) was compared to the vehicle group (negative control) and calculated as percentage increase over vehicle.
Additional studies were conducted to evaluate the efficacy of the V4 peptide and the reversible MAL-FMS-V4. The long acting effect of V4 and the conjugates were evaluated at Day 6 and Day 10 following treatment (Study reference 15203). All test groups (n=9) were injected SC with 2 mg/kg peptide content at Day 1. At Days 6 and 10, animals were sacrificed and the small intestine underwent histopathology evaluation (6 animals for Day 6, 3 animals for Day 10). FIGS. 12 and 13 show the pharmacology effect of different V4 conjugates and Apraglutide and Glepaglutide as measured by the percent increase of small intestine weight and crypts plus villi length over vehicle, respectively.
To further evaluate the pharmacology efficacy of V4 and Cys-FMS-V4, an experiment was performed to test their acute and prolonged effect on the small intestine (Study reference 15205). In addition, V4 and Cys-FMS-V4 were administrated as a single SC injection on Day 1 at 3 different doses (0.5, 2.0 or 8.0 mg/kg peptide content, 6 rats per group) to assess the dose dependence effect. The pharmacological effect on small intestine weight and villi plus crypts length was measured at Days 3, 7 and 14, and the results are presented in FIGS. 15 and 16. […] It should be noted that this acute response was higher for V4 compared to Cys-FMS-V4 at all 3 dose levels.

[2] = PK after single IV injection in rats; format: in vivo
Source text: Blood samples were collected at 0.5, 2, 4, 8, 12, 24, 36, 48, 72, 96- and 120-hours post-dose administration.

[3] = 2-compartmental pharmacokinetic modelling (MONOLIX 2018R2); format: in vivo, rat; conditions: for half-life: rat, in vivo
Experimental: An in-depth PK modeling was performed to address the unexpected differences in half life, distribution, and pharmacological effect between V4, Cys-FMS-V4, and Apraglutide in the rat model. The analysis was performed with MONOLIX 2018R2 suite using a 2-compartmental pharmacokinetic model. The data used in this analysis was comprised from 3 independent experiments (data is presented as their average). The concentration versus time data of V4 that was formed from the Cys-FMS-V4 conjugate (the hydrolyzed peptide) was described appropriately using the values of the pharmacokinetic parameters of V4 peptide. Thus, the disposition of the hydrolyzed V4 was identical to that of the V4 peptide following the IV and SC administration.
The pharmacokinetics of Apraglutide in our studies was determined after SC administration. […] Based on this assumption, the values of volumes of distribution and clearance (Vpept, Vss, Vbeta, and CL) were calculated for Apraglutide (Table 13). The values of the other parameters of Apraglutide in Table 14 (the rate constants and the half-lives) are not dependent on this assumption.

[4] = PK after single SC injection in rats (LC-MS/MS); conditions: rat, in vivo, 2 mg/kg
Experimental: To support the pharmacodynamic effects of V4 and Cys-FMS-V4 as detailed in Example 9, a pharmacokinetic analysis was also conducted. In this study (Study reference 15204), all animals were injected SC on Day 1 with 2 mg/kg peptide content of V4, Cys-FMS-V4 and Apraglutide. Blood samples were collected at 2, 8, 12, 24, 36, 48, 72, 96, 120 hours, and Days 7, 8, 9, 10, 11, 12, 13 and 14 post-dose administration and subsequently taken to LC-MS/MS analysis to determine plasma levels of each compound. For Cys-FMS-V4, a 2-analyte method was applied to determine the plasma concentrations of both the full conjugate and the V4 that was hydrolyzed from it (V4 hydrolyzed). Plasma concentrations (μM), as measured by using the LC-MS/MS method, of V4 peptide, Cys-FMS-V4, hydrolyzed V4, and Apraglutide are presented in FIG. 17.

[5] = SD rats, SC on days 1 and 3 at 1 mg/kg peptide dose (2 injections), intestine weight on day 6
[6] = single dose 1 mg/kg peptide, intestine weight on day 6, average of two studies
[7] = 2 mg/kg peptide dose once every 6 days for 12 days, weighed on 12th day
[8] = rats, single IV 2 mg/kg peptide content
[9] = 0.5 mg/kg peptide dose once every 6 days for 12 days, weighed on 12th day

Molecule: PEG40-FMS-(GLP-2-Gly2): teduglutide reversibly PEGylated, PEG40 via FMS linker; heterogenous mixture of N terminus and Lys30 attachment
- Average Intestine weight (gr) [1, 5]: 9.3 gr
- Increase of intestine weight over vehicle (%) [1, 5]: 70%
- Increase of intestine weight over vehicle (%) [1, 6]: 27%

Molecule: PEG40-Fmoc-(GLP-2-Gly2): teduglutide reversibly PEGylated, PEG40 via Fmoc linker; heterogenous mixture of N terminus and Lys30 attachment
- Average Intestine weight (gr) [1, 7]: 6.9 gr
- Increase of intestine weight over vehicle (%) [1, 7]: 14%
- Average Intestine weight (gr) [1, 5]: 9.4 gr
- Increase of intestine weight over vehicle (%) [1, 5]: 72%
- Increase of intestine weight over vehicle (%) [1, 6]: 31%

Molecule: PEG40-EMCS-(GLP-2-Gly2): non-reversible PEGylation (PEG40, EMCS) conjugated to GLP-2-Gly2
- Average Intestine weight (gr) [1, 5]: 6.6 gr
- Increase of intestine weight over vehicle (%) [1, 5]: 19%

Molecule: CCCC[C@H](NC(=O)[C@H](CCC(=O)O)NC(=O)[C@H](CC(=O)O)NC(=O)[C@H](CO)NC(=O)[C@H](Cc1ccccc1)NC(=O)[C@H](CO)NC(=O)CNC(=O)[C@H](CCC(=O)O)NC(=O)CNC(=O)[C@H](Cc1c[nH]cn1)NC(=O)OCC1c2cc(NC(=O)CCN3C(=O)CC(SC[C@H](N)C(=O)O)C3=O)ccc2-c2ccc(S(=O)(=O)O)cc21)C(=O)N[C@@H](CC(N)=O)C(=O)N[C@H](C(=O)N[C@H](C(=O)N[C@@H](CC(C)C)C(=O)N[C@@H](CC(=O)O)C(=O)N[C@@H](CC(C)C)C(=O)N[C@@H](CC(C)C)C(=O)N[C@@H](C)C(=O)N[C@@H](C)C(=O)N[C@@H](CCCNC(=N)N)C(=O)N[C@@H](CC(=O)O)C(=O)N[C@@H](Cc1ccccc1)C(=O)N[C@H](C(=O)N[C@@H](CC(N)=O)C(=O)N[C@@H](Cc1c[nH]c2ccccc12)C(=O)N[C@@H](CC(C)C)C(=O)N[C@H](C(=O)N[C@@H](CCC(N)=O)C(=O)N[C@H](C(=O)N[C@@H](CCCCN)C(=O)N[C@H](C(=O)N[C@H](C(=O)N[C@@H](CC(=O)O)C(N)=O)[C@@H](C)O)[C@@H](C)CC)[C@@H](C)O)[C@@H](C)CC)[C@@H](C)CC)[C@@H](C)CC)[C@@H](C)O (stereo partly drawn) [Cys-FMS-V4] (X1-[X2]HGEGSFSDE[Nle]NTILDLLAARDFINWLIQTKITD-NH2)
- Fraction of V4 released from the conjugate (AUC ratio) ([2]; rats, single IV 2 mg/kg): ~35%
- Cl/F_obs [2, 8]: 0.064 (μmol/kg)/(μmol/L)/h
- Vz/F_obs [2, 8]: 0.260 (μmol/kg)/(μmol/L)
- Detectability in blood after IV administration ([2]; rats, single IV 2 mg/kg, 24 hours post injection): could not be detected 24 hours post injection
- Fraction of Cys-FMS-V4 converted to V4 following SC administration ([3]; 53.8% SC bioavailability, 67.9% hydrolyzed to V4): approximately 36.5%
- Vconj ([3]; Cys-FMS-V4 conjugate): 0.119 L/kg
- ka—conj ([3]; Cys-FMS-V4 conjugate): 0.0717 h⁻¹
- kconje ([3]; Cys-FMS-V4 conjugate): 0.207 h⁻¹
- kh ([3]; Cys-FMS-V4 conjugate): 0.438 h⁻¹
- Fconj ([3]; Cys-FMS-V4 conjugate, SC bioavailability fraction): 0.538
- % to V4 ([3]; absorbed Cys-FMS-V4 hydrolyzed to V4): 67.9%
- half-life ([3]; Cys-FMS-V4 conjugate, Table 15, read-out: t1/2 absorption (converted)): 9.67 h
- half-life ([3]; Cys-FMS-V4 conjugate, read-out: t1/2 hydrolysis (converted)): 1.58 h
- half-life ([3]; Cys-FMS-V4 conjugate, read-out: t1/2 other pathways (converted)): 3.35 h

- Cl/F_obs ([2]; rat, in vivo, iv, 2 mg/kg): 0.042 (μmol/kg)/(μmol/L)/h
- Vz/F_obs ([2]; rat, in vivo, iv, 2 mg/kg): 0.487 (μmol/kg)/(μmol/L)
- Cl/F obs [4]: 0.034 (μmol/kg)/(μmol/L)/h
- Vz/F_obs [4]: 2.19 (μmol/kg)/(μmol/L)
Molecule: CCCC[C@H](NC(=O)[C@H](CCC(=O)O)NC(=O)[C@H](CC(=O)O)NC(=O)[C@H](CO)NC(=O)[C@H](Cc1ccccc1)NC(=O)[C@H](CO)NC(=O)CNC(=O)[C@H](CCC(=O)O)NC(=O)CNC(=O)[C@@H](N)Cc1c[nH]cn1)C(=O)N[C@@H](CC(N)=O)C(=O)N[C@H](C(=O)N[C@H](C(=O)N[C@@H](CC(C)C)C(=O)N[C@@H](CC(=O)O)C(=O)N[C@@H](CC(C)C)C(=O)N[C@@H](CC(C)C)C(=O)N[C@@H](C)C(=O)N[C@@H](C)C(=O)N[C@@H](CCCNC(=N)N)C(=O)N[C@@H](CC(=O)O)C(=O)N[C@@H](Cc1ccccc1)C(=O)N[C@H](C(=O)N[C@@H](CC(N)=O)C(=O)N[C@@H](Cc1c[nH]c2ccccc12)C(=O)N[C@@H](CC(C)C)C(=O)N[C@H](C(=O)N[C@@H](CCC(N)=O)C(=O)N[C@H](C(=O)N[C@@H](CCCCN)C(=O)N[C@H](C(=O)N[C@H](C(=O)N[C@@H](CC(=O)O)C(N)=O)[C@@H](C)O)[C@@H](C)CC)[C@@H](C)O)[C@@H](C)CC)[C@@H](C)CC)[C@@H](C)CC)[C@@H](C)O [V4 (hydrolyzed)] (H-HGEGSFSDE[Nle]NTILDLLAARDFINWLIQTKITD-NH2)

Molecule: PEGBranched40-FMS-(GLP-2-Gly2): teduglutide reversibly PEGylated with branched PEG40 via FMS linker
- Average Intestine weight (gr) [1, 5]: 8.1 gr
- Increase of intestine weight over vehicle (%) [1, 5]: 48%
- Increase of intestine weight over vehicle (%) [1, 6]: 22%

Molecule: PEG30-FMS-(GLP-2-Gly2): teduglutide reversibly PEGylated, PEG30 via FMS linker; heterogenous mixture of N terminus and Lys30 attachment
- Average Intestine weight (gr) [1, 5]: 9.5 gr
- Increase of intestine weight over vehicle (%) [1, 5]: 73%
- Increase of intestine weight over vehicle (%) [1, 6]: 34%

Molecule: PEG30-FMS-V4 (HGEGSFSDE[Nle]NTILDLLAARDFINWLIQTKITD-NH2; also: PEG30-FMS conjugate, place not given here)
- Average Intestine weight (gr) [1, 9]: 5.2 gr
- Increase of intestine weight over vehicle (%) [1, 9]: −14%
- Average Intestine weight (gr) [1, 7]: 6.9 gr
- Increase of intestine weight over vehicle (%) [1, 7]: 15%

Molecule: PEG(Branch20)-FMS-(GLP-2-Gly2): teduglutide reversibly PEGylated with branched PEG via FMS linker; tables say Branch20, b275 Branched30
- Average Intestine weight (gr) [1, 5]: 7.8 gr
- Increase of intestine weight over vehicle (%) [1, 5]: 42%

Molecule: PEG30-NRF-V4 (HGEGSFSDE[Nle]NTILDLLAARDFINWLIQTKITD-NH2; also: PEG30-NRF conjugate, place not given here)
- Avg. small intestine weight (gr) ([1]; normal SD rats, injected once at 2 mg/kg peptide dose, 6th day): 4.0 gr
- Small intestine weight increase over vehicle (%) ([1]; normal SD rats, injected once at 2 mg/kg peptide dose, 6th day, MAL-FMS-V4 compared to Vehicle 2): −8.0%
